Measurements from patent US20240033234A1, “THERAPEUTIC COMPOUNDS, FORMULATIONS, AND USE THEREOF” (Tvardi Therapeutics, Inc., priority 2022, published 2024).
Several values for one entry are separate records, joined by “and”; a condition that tells them apart may be missing. Equal entries are not always repeated.

Test: Accelerated and long term stability study of TTI-101 (Batch A, Batch B): HPLC assay, purity, impurities and water content after storage at 5° C., 25° C./60% RH, 30° C./65% RH or 40° C./75% RH
Assay type: physicochemical
Experimental: Exemplary HPLC conditions: diluent was 0.1% trifluoroacetic acid (TFA) in acetonitrile, Mobile Phase A was 0.05% TFA in water, and Mobile Phase B was 0.05% TFA in acetonitrile, column (Agilent, Eclipse XDB-C18, 3.0×100 mm, particle size 1.8 μm), flow (0.425 mL/min), and detector (280 nm diode array).
Batch A was prepared analogously using Method 3 as described in Example 1. Batch B was prepared according to Method 5 as described in Example 1.
Samples of TTI-101 were stored at 5° C., 25° C./60% RH, 30° C./65% RH, or 40° C./75% RH. TTI-101 was stored in an LDPE bag enclosed with a Nylon cable tie and then transferred to another LDPE bag and enclosed with a Nylon cable tie. The enclosure was put into an HDPE bottle and closed with a polyethylene-lined polypropylene cap. The samples were stored under the above-identified conditions.
The samples were analyzed using HPLC with the exemplary conditions identified above. Relative retention time (RRT) for Compound 5 was about 0.83, Compound 4 was about 1.05-1.06, Compound 6 was about 1.15-1.17, and compound of formula (IV) was about 0.99.
• NA not applicable • NQ ≥0.02% and <0.05% • Avg average • Cmpd compound • — no peak • M month • RRT relative retention time

[1] = Storage 25° C./60% RH, 6 M, Prep P1-P2
[2] = Storage 25° C./60% RH, 6 M, Prep P1-P2, listed as Batch B
[3] = Storage 25° C./60% RH, 9 M, Avg
[4] = Storage 25° C./60% RH, 9 M, Prep P1-P2
[5] = Storage 25° C./60% RH, 9 M, Prep P1-P2, listed as Batch B
[6] = Storage 40° C./75% RH, 0 M, Avg
[7] = Storage 40° C./75% RH, 0 M, Prep P1-P5
[8] = Storage 40° C./75% RH, 0 M, Prep P1-P5, listed as Batch B
[9] = Storage 40° C./75% RH, 1 M, Avg
[10] = Storage 40° C./75% RH, 1 M, Prep P1-P2
[11] = Storage 40° C./75% RH, 3 M, Avg
[12] = Storage 40° C./75% RH, 3 M, Prep P1-P2
[13] = Storage 40° C./75% RH, 3 M, Prep P1-P2, listed as Batch B
[14] = Storage 40° C./75% RH, 6 M, Avg
[15] = Storage 40° C./75% RH, 6 M, Prep P1-P2
[16] = Storage 40° C./75% RH, 6 M, Prep P1-P2, listed as Batch B

COc1ccc(S(=O)(=O)Nc2cc(-c3c(O)ccc4ccccc34)c(O)c3ccccc23)cc1 [TTI-101]
Impurity RRT 0.84 [1]: NQ (≥0.02% and <0.05%)
Impurity RRT 0.87 [1]: NQ (≥0.02% and <0.05%)
Impurity RRT 1.05 [1]: NQ (≥0.02% and <0.05%)
Impurity RRT 1.06 (Cmpd 4) [1]: NQ (≥0.02% and <0.05%)
Impurity RRT 1.39 [1]: NQ (≥0.02% and <0.05%)
Water Content [1]: <0.04%
Assay [2]: 99.0% and 98.5%
Impurity RRT 1.17 (Cmp 6) [2]: 0.23 area % and 0.25 area %
Purity [2]: 99.6% and 99.5%
Assay [3]: 99.0%
Impurities Total [3]: 0.4 area %
Impurity RRT 0.84 [3]: NQ (≥0.02% and <0.05%)
Impurity RRT 0.87 [3]: NQ (≥0.02% and <0.05%)
Impurity RRT 0.99 [3]: 0.12 area %
Impurity RRT 1.02 [3]: 0.06 area %
Impurity RRT 1.16 (Cmp 6) [3]: 0.18 area %
Impurity RRT 1.39 [3]: NQ (≥0.02% and <0.05%)
Purity [3]: 99.5%
Water Content [3]: 0.1%
Impurities Total [4]: 0.4 area %
Impurity RRT 0.84 [4]: NQ (≥0.02% and <0.05%)
Impurity RRT 0.87 [4]: NQ (≥0.02% and <0.05%)
Impurity RRT 1.02 [4]: 0.06 area %
Impurity RRT 1.16 (Cmp 6) [4]: 0.18 area %
Impurity RRT 1.39 [4]: NQ (≥0.02% and <0.05%)
Water Content [4]: 0.1%
Assay [5]: 99.7% and 98.2%
Impurity RRT 0.99 [5]: 0.12 area % and 0.13 area %
Purity [5]: 99.6% and 99.5%
Assay [6]: 99.4%
Impurities Total [6]: 0.1 area %
Impurity RRT 0.61 [6]: 0.05 area %
Impurity RRT 0.86 [6]: NQ (≥0.02% and <0.05%)
Impurity RRT 0.88 [6]: NQ (≥0.02% and <0.05%)
Impurity RRT 0.99 [6]: NQ (≥0.02% and <0.05%)
Impurity RRT 1.16 (Cmp 6) [6]: 0.07 area %
Purity [6]: 99.8%
Water Content [6]: 0.1%
Water Content (Storage 40° C./75% RH, 0 M, Prep P1-P2): 0.1%
Impurities Total [7]: 0.1 area %
Impurity RRT 0.86 [7]: NQ (≥0.02% and <0.05%)
Impurity RRT 0.99 [7]: NQ (≥0.02% and <0.05%)
Purity [7]: 99.8%
Assay [8]: 99.0% and 100.5% and 99.3% and 99.5% and 98.8%
Impurity RRT 1.16 (Cmp 6) [8]: 0.08 area % and 0.07 area %
Assay [9]: 99.2%
Impurities Total [9]: 0.6 area %
Impurity RRT 0.80 [9]: NQ (≥0.02% and <0.05%)
Impurity RRT 0.84 [9]: NQ (≥0.02% and <0.05%)
Impurity RRT 0.87 [9]: NQ (≥0.02% and <0.05%)
Impurity RRT 0.99 [9]: 0.14 area %
Impurity RRT 1.02 [9]: 0.06 area %
Impurity RRT 1.05 [9]: NQ (≥0.02% and <0.05%)
Impurity RRT 1.06 (Cmpd 4) [9]: NQ (≥0.02% and <0.05%)
Impurity RRT 1.17 (Cmp 6) [9]: 0.38 area %
Impurity RRT 1.39 [9]: 0.05 area %
Purity [9]: 99.3%
Water Content [9]: 0.1%
Impurities Total [10]: 0.6 area %
Impurity RRT 0.80 [10]: NQ (≥0.02% and <0.05%)
Impurity RRT 0.84 [10]: NQ (≥0.02% and <0.05%)
Impurity RRT 0.87 [10]: NQ (≥0.02% and <0.05%)
Impurity RRT 0.99 [10]: 0.14 area %
Impurity RRT 1.02 [10]: 0.06 area %
Impurity RRT 1.05 [10]: NQ (≥0.02% and <0.05%)
Impurity RRT 1.06 (Cmpd 4) [10]: NQ (≥0.02% and <0.05%)
Impurity RRT 1.17 (Cmp 6) [10]: 0.38 area %
Impurity RRT 1.39 [10]: 0.05 area %
Purity [10]: 99.3%
Water Content [10]: 0.1%
Assay (Storage 40° C./75% RH, 1 M, Prep P1-P2, listed as Batch B): 99.1% and 99.4%
Assay [11]: 98.7%
Impurities Total [11]: 1.0 area %
Impurity RRT 0.38 [11]: NQ (≥0.02% and <0.05%)
Impurity RRT 0.80 [11]: NQ (≥0.02% and <0.05%)
Impurity RRT 0.84 [11]: NQ (≥0.02% and <0.05%)
Impurity RRT 0.87 [11]: NQ (≥0.02% and <0.05%)
Impurity RRT 0.99 [11]: 0.24 area %
Impurity RRT 1.02 [11]: 0.19 area %
Impurity RRT 1.06 (Cmpd 4) [11]: NQ (≥0.02% and <0.05%)
Impurity RRT 1.17 (Cmp 6) [11]: 0.37 area %
Impurity RRT 1.39 [11]: 0.16 area %
Purity [11]: 98.9%
Water Content [11]: 0.04%
Impurity RRT 0.38 [12]: NQ (≥0.02% and <0.05%)
Impurity RRT 0.80 [12]: NQ (≥0.02% and <0.05%)
Impurity RRT 0.84 [12]: NQ (≥0.02% and <0.05%)
Impurity RRT 0.87 [12]: NQ (≥0.02% and <0.05%)
Impurity RRT 0.99 [12]: 0.24 area %
Impurity RRT 1.02 [12]: 0.19 area %
Impurity RRT 1.39 [12]: 0.16 area %
Purity [12]: 98.9%
Assay [13]: 98.5% and 99.0%
Impurities Total [13]: 1.0 area % and 0.9 area %
Impurity RRT 1.17 (Cmp 6) [13]: 0.39 area % and 0.35 area %
Water Content [13]: <0.04% and 0.04%
Assay [14]: 98.4%
Impurities Total [14]: 1.0 area %
Impurity RRT 0.39 [14]: NQ (≥0.02% and <0.05%)
Impurity RRT 0.80 [14]: NQ (≥0.02% and <0.05%)
Impurity RRT 0.84 [14]: NQ (≥0.02% and <0.05%)
Impurity RRT 0.87 [14]: NQ (≥0.02% and <0.05%)
Impurity RRT 0.99 [14]: NQ (≥0.02% and <0.05%)
Impurity RRT 1.02 [14]: 0.34 area %
Impurity RRT 1.06 (Cmpd 4) [14]: NQ (≥0.02% and <0.05%)
Impurity RRT 1.17 (Cmp 6) [14]: 0.30 area %
Impurity RRT 1.27 [14]: NQ (≥0.02% and <0.05%)
Impurity RRT 1.39 [14]: 0.34 area %
Purity [14]: 98.9%
Water Content [14]: <0.04%
Impurities Total [15]: 1.0 area %
Impurity RRT 0.39 [15]: NQ (≥0.02% and <0.05%)
Impurity RRT 0.80 [15]: NQ (≥0.02% and <0.05%)
Impurity RRT 0.84 [15]: NQ (≥0.02% and <0.05%)
Impurity RRT 0.87 [15]: NQ (≥0.02% and <0.05%)
Impurity RRT 0.99 [15]: NQ (≥0.02% and <0.05%)
Impurity RRT 1.02 [15]: 0.34 area %
Impurity RRT 1.06 (Cmpd 4) [15]: NQ (≥0.02% and <0.05%)
Impurity RRT 1.39 [15]: 0.34 area %
Water Content [15]: <0.04%
Assay [16]: 98.6% and 98.2%
Impurity RRT 1.17 (Cmp 6) [16]: 0.31 area % and 0.29 area %
Purity [16]: 98.8% and 98.9%
stability (over 24 months): excellent stability
